According to patent US10023615B2, “Efficient transport into white blood cells” (priority 2008, dated 2018):
Square brackets hold non-standard residues; d marks the D form. Ends that are not written are not given here.

Tests used:
[1] = test system: liver and lymph nodes; assay: FITC-XG-102 and FITC-D-TAT localization in liver and lymph nodes; format: in vivo, Sprague Dawley rat; conditions: 1 mg/kg i.v., 6 h post-injection
Source text: FIG. 22A and FIG. 22B: 22A: FITC-XG-102 (SEQ ID NO: 233) localization in the liver. Three cellular fields of FITC-XG-102-labelled cells isolated from liver. From left to right, FITC-labelled XG-102, corresponding DAPI nuclear stain and merge of both images. […] Typicall Kupfer cell shape and nucleus can be differentiated from hepatocytes by their shape. Small and triangle in Kupfer cells in contrast to big exagonal, well organized hepatocytes. Obj 63; bar, 20 μm. 22B: FITC-D-TAT (SEQ ID NO: 4) localization in the liver. Two cellular fields of FITC-D-TAT-labelled cells isolated from liver. From left to right, FITC-labelled XG-102, corresponding DAPI nuclear stain and merge of both images. […] Typicall Kupfer cell shape and nucleus can be differentiated from hepatocytes by their shape. Small and triangle in Kupfer cells in contrast to big exagonal, well organized hepatocytes. Obj 63; bar, 20 μm.
(§1) FIG. 23A and FIG. 23B: 23A: FITC-XG-102 (SEQ ID NO: 233) localization in lymph nodes. Cellular field of FITC-XG-102-labelled cells isolated from lymph nodes. Upper panels from left to right: the composite image is organized with one cellular field stained with FITC-XG-102 (left), Dapi for nuclear stain (middle) and the corresponding merged image (right). In the lower panels, a zoomed cell cluster of each image is illustrated. […] The absence of FITC staining in the lymphoid follicles allows distinguishing from the medullary corde and cortex area. Medullary zone seems to have incorporated the FITC-XG-102, composed in majority by macrophages. Obj 10; bar, 50 μm.
as §1, with “23B:” for “FIG. 23A and FIG. 23B:”, “FITC-D-TAT” for “23A: FITC-XG-102”, “4)” for “233)”, “FITC-D-TAT-labelled” for “FITC-XG-102-labelled”, “FITC-D-TAT” for “FITC-XG-102”, “FITC-D-TAT,” for “FITC-XG-102,”
Female Sprague Dawley rat was injected i.v. in the tail with either 1 mg/kg of FITC-XG102 (SEQ ID NO:233) or 1 mg/kg FITC-D-TAT (SEQ ID NO:4). Rats were sacrified 6 h post-injection using a lethal dose of sodium pentobarbital (150 mg/kg i.p.). For histological analysis and during narcosis, rats were perfused through the heart with 4% paraformaldehyde (PFA) in PBS. Organs (liver and lymph nodes) were cryoprotected in sucrose (30% in PBS), frozen using liquid isopentane and kept for further cryostat sectioning. Sections of 14 μm were incubated for 5 min in PBS before Hoechst staining for 2 min at RT (1 μg/ml). […]

[2] = test system: Lymphocytes B (CD19); assay: Flow cytometry of FITC-transporter content in primary human white blood cells: lymphocytes B; format: cell-based; conditions: 1 uM, 30 min, 37° C.
Source text: (§2) Primary human white blood cells (WBC) were obtained from whole blood after red blood cell lysis. […] Cells containing D-TAT-FITC and r3-L-TAT-FITC were finally analysed by flow cytometry to measure their respective transporter content.

[3] = test system: Neutrophils (CD15); assay: Flow cytometry of FITC-transporter content in primary human white blood cells: neutrophils; format: cell-based; conditions: 1 uM, 30 min, 37° C.
Source text: as §2

[4] = test system: Monocytes (CD14); assay: Flow cytometry of FITC-transporter content in primary human white blood cells: monocytes; format: cell-based; conditions: 1 uM, 30 min, 37° C.
Source text: as §2

[5] = test system: Lymphocytes T (CD3); assay: Flow cytometry of FITC-transporter content in primary human white blood cells: lymphocytes T; format: cell-based; conditions: 1 uM, 30 min, 37° C.
Source text: as §2

[6] = test system: TNBS induced colitis; assay: TNBS induced colitis (IBD study); format: in vivo
Procedure: b) Constitution of Test Groups and Dose Levels • The table below lists the experimental groups comprising the study.
c) Test Procedures • Colitis was induced by administration of TNBS dissolved in 50% Ethanol • All animals were then treated with doses of XG-102 in the range of 0.1 to 1000 μg/kg, […], as a single or repeated daily doses (see above).
d) Observations and Examinations • i) Clinical Signs • Throughout the duration of the above experiment, careful clinical examinations were carried out and recorded. Observations included changes external appearance, e.g. of the skin, fur, eyes, mucous membranes, occurrence of secretions and excretions (e.g. diarrhea), and autonomic activity. Changes in gait, posture and response to handling, as well as the presence of bizarre behavior, tremors, convulsions, sleep and coma were also noted. • ii) Body Weights • Determination of individual body weight of animals was made on a daily basis. • iii) Clinical Assessment of Colitis • Body weight, stool consistency and bleeding per rectum were all recorded daily and served as the parameters of disease severity score:
• iv) Gross Pathology of the Colon • On the last day of the experiment, animals were euthanized and the colon was removed for gross pathology evaluation according to the following score: […]

[7] = test system: HL-60 cell line (Leukemia); assay: Time dependant internalization of FITC-labeled TAT derived transporter constructs into HL-60 cells; format: cell-based; conditions: 10 μM; 30 min, 1, 6 or 24 hours
Procedure: FIG. 3: depicts the results of the time dependant internalization (uptake) of FITC-labeled TAT derived transporter constructs into cells of the HL-60 cell line. […] HL-60 cells were incubated 30 min, 1, 6 or 24 hours with […] of the TAT-derivative transporters. The cells were then washed twice with an acidic buffer (0.2 M Glycin, 0.15 M NaCl, pH 3.0) and twice with PBS. Cells were broken by the addition of RIPA lysis buffer. The relative amount of internalized peptide was then determined by reading the fluorescence intensity (Fusion Alpha plate reader; PerkinElmer) of each extract followed by background substraction and protein content normalization. […]

[8] = test system: U937 lymphoma cells; assay: Uptake (internalization) of FITC-labeled TAT derived transporter constructs in U937 cells, fluorescence plate reader; format: cell-based; conditions: 10 μM, U937, Lymphoma, 24 h
Procedure: Cells were plated into poly-DL-lysine coated dishes at a concentration of 1×10^6 cells/ml. Plates were then incubated for 24 h at 37° C., 5% CO2, and 100% relative humidity prior to the addition of a known concentration of peptide. After peptide addition, the cells were incubated 30 min, 1, 6 or 24 h at 37° C., 5% CO2, and 100% relative humidity. Cells were then washed twice with an acidic buffer (Glycin 0.2 M, NaCl 0.15 M, pH 3.0) in order to remove the cell-surface adsorbed peptide (see Kameyama et al., (2007), Biopolymers, 88, 98-107). […] The cell wash using an acidic buffer was thus employed to remove the cell-surface adsorbed peptides. […] Cells were broken by the addition of the RIPA lysis buffer. The relative amount of internalized peptide was then determined by fluorescence after background substraction and protein content normalization. • The steps are thus: 1. […] Analysis of peptide internalization with a fluorescence plate reader • f) Cell Culture and Peptide Treatment • (1) The 6 well culture plates are coated with 3 ml of Poly-D-Lys (Sigma P9011; 25 μg/ml in PBS), the 24 well plates with 600 μl and the 96 well plates with 125 μl and incubated for 4 h at 37° C., CO2 5% and 100% relative humidity. • (2) After 4 hours the dishes were washed twice with 3.5 ml PBS, 700 μl or 150 μl PBS for the 6, 24 or 96 well plates, respectively. • (3) The cells were plated into the dishes in 2.4 ml medium (RPMI) at plating densities of 1′000′000 cells/ml for suspension cells. After inoculation, the plates were incubated at 37° C., 5% CO2 and 100% relative humidity for 24 hours prior to the addition of the peptide. Adherent cells should be at a density of 90-95% the day of treatment and were plated in DMEM :
• (4) The cells were treated with the desired concentration of FITC labeled peptide (stock solution at a concentration of 10 mM in H2O). • (5) Following peptide addition, the cells were incubated 0 to 24 hours (e.g. 30 min, 1, 6 or 24 hours) at 37° C., CO2 5% and 100% relative humidity. • Acidic Wash and Cellular Extracts: • (6) The extracts were cooled on ice. • Suspension cells (or cells, which don attach well to the dish): • Transfer the cells in ? […] To recover the maximum of cells, wash the dish with 1 ml of PBS. • Harvest the cells 2 min at 2400 rpm max. • Suspend the cells in 1 ml cold PBS. • Transfer the cells into a coated “Eppendorf tube” (coated with 1 ml of poly D-Lys for 4 hours and washed twice with 1 ml PBS). • Wash three times with 1 ml of cold acidic wash buffer and centrifuge 2 min at 2400 rpm max. Beware of the spreading of the cells in the “eppendorf”. • Wash twice with 1 ml cold PBS to neutralize. • Add 50 μl of lysis RIPA Buffer. • Incubate 30 min-1 h on ice with agitation. • Adherent Cells: • Wash three times with 3 ml, 1 ml or 200 μl (for 6, 24 or 96 well plates, respectively) of cold acidic wash buffer. Beware of the cells who detach from the dish. • Wash twice with 1 ml cold PBS (for 6, 24 or 96 well plates, respectively) to neutralize. • Add 50 μl of lysis RIPA buffer. • Incubate 30 min-1 h on ice with agitation. • Scrap the cells with a cold scrapper. The 24 and 96 well plates were directly centrifuged at 4000 rpm at 4° for 15 min to remove the cellular debris. Then the supernatants (100 or 50 ml respectively for the 24 or 96 well plates) were directly transferred in a dark 96 well plated.

[9] = test system: U937 cells; assay: Intracellular concentration of transporter constructs subsequent to uptake into U937 cells; format: cell-based; conditions: U937 cells, 10 μM construct
Procedure: 9. Determination of Intracellular Concentration of Specific Transporter Constructs Subsequent to Uptake (Internalization) of these Peptides into U937 Cells • According to a further experiment, the concentration of specific transporter constructs subsequent to uptake (internalization) of these peptides into U937 cells were determined.

[10] = test system: dissociated cortical primary neurons; assay: Confocal microscopy of FITC-labeled TAT derivative transporters in cortical primary neurons; format: cell-based, rat; conditions: 500 nM, 24 hours
Procedure: 8.4 Internalization Experiments and Analysis • The time dependant internalization (uptake) of FITC-labeled TAT derived transporter constructs into cells of the HL-60 cell line was carried out with materials and methods as described above. • Briefly, HL-60 cells were incubated 30 min, 1, 6 or 24 hours with 10 μM of the TAT-derivative transporters. The cells were then washed twice with an acidic buffer (0.2 M Glycin, 0.15 M NaCl, pH 3.0) and twice with PBS. Cells were broken by the addition of RIPA lysis buffer. The relative amount of internalized peptide was then determined by reading the fluorescence intensity (Fusion Alpha plate reader; PerkinElmer) of each extract followed by background substraction and protein content normalization. […] The dissociated cortical primary neurons from P2 Sprague Dawley rats were cultured 12 days in neurobasal medium before exposure 24 hours to 500 nM of the FITC-labeled • TAT derivative transporters. The cells were washed five times with PBS on ice and then mounted in fluorsave mounting medium without prior fixation. Acquisitions were performed on LSM510 metaconfocal microscope (Zeiss). Images were processed with LSM510 software and mounted using Adobe photoshop. Visualization by confocal microscopy of labeling with 500 nM FITC-transporters (A: green). Nuclei were stained by Hoechst (B: blue).

For “FITC-XG-102: FITC-labelled XG-102 (SEQ ID NO: 233) ([dD][dQ][dS][dR][dP][dV][dQ][dP][dF][dL][dN][dL][dT][dT][dP][dR][dK][dP][dR][dP][dP][dR][dR][dR][dQ][dR][dR][dK][dK][dR]G; not fully specified (N-terminus, C-terminus); also: FITC label, site not given here)”, the “localization in lymph nodes” value [1] was “decorates subcapsular sinus macrophages and constitutive migrating alveolar macrophages” and the “localization in the liver” value [1] was “efficiently decorates Kupfer cells in contrast to hepatocytes which only show a background staining level”.

With FITC-βA-rKKRrQRRr [r3-L-TAT-FITC] the “percentage of cells gated, lower left quadrant” value (from here on “percentage … lower left quadrant”) [2] was 61.92%, the “percentage of cells gated, lower right quadrant” value [2] was 8.48% and the “percentage of cells gated, upper left quadrant” value (from here on “percentage … upper left quadrant”) [2] was 27.83%. For the same compound, the “percentage of cells gated, upper right quadrant” value [2] was 1.76%, the “percentage … lower left quadrant” value [3] was 49.75% and the “percentage of cells gated, lower right quadrant” value [3] was 24.76%. For the same compound, the “percentage … upper left quadrant” value [3] was 11.74%, the “percentage of cells gated, upper right quadrant” value [3] was 13.75% and the “percentage … lower left quadrant” value [4] was 40.77%. For the same compound, the “percentage of cells gated, lower right quadrant” value [4] was 36.24%, the “percentage … upper left quadrant” value [4] was 6.34% and the “percentage of cells gated, upper right quadrant” value [4] was 16.65%. For the same compound, the “percentage … lower left quadrant” value [5] was 50.36%, the “percentage of cells gated, lower right quadrant” value [5] was 20.04% and the “percentage … upper left quadrant” value [5] was 20.64%. For the same compound, the “percentage of cells gated, upper right quadrant” value [5] was 8.96%.

In the case of `O=C(O)c1cc(/N=N/c2ccc(S(=O)(=O)Nc3ccccn3)cc2)ccc1O` [Sulfasalazine, reference compound], the clinical score ([6]; any dose, route or time schedule (single dose or daily dose)) is reported as “reduction in the clinical score” and the gross pathology score ([6]; end of the study) is reported as “effective in reducing the gross pathology completely”.

“RKKRRQRRR (Description of sequence trafficking sequence L-TAT (s1a) (see Table 1)) [reference compound]” was tested, and the “time dependant internalization (uptake)” value [7] was “doesn't accumulate over a period of 24 hours”, the “uptake (internalization)” value [8] was “significantly lower uptake” and the “intracellular concentration of transporter construct subsequent to uptake” value (from here on “intracellular concentration”) ([9]; 2 h) was 1.20. The “intracellular concentration” value ([9]; 4 h) was 1.38, the “intracellular concentration” value ([9]; 6 h) was 1.07 and the “intracellular concentration” value ([9]; 24 h) was 0.5.

In the case of rRRQrRKKr [r3-L-TATi], the “time dependant internalization (uptake)” value [7] is reported as “less efficient but still suitable”, the “uptake (internalization)” value [8] is reported as “most efficient” and the “internalization seen by confocal microscopy” value [10] is reported as “internalized into the cytoplasm of the non stressed neurons”.
